From PMC10810651, “Discovery of novel and potent CDK8 inhibitors for the treatment of acute myeloid leukaemia” (Journal of Enzyme Inhibition and Medicinal Chemistry, 2024)
Read-outs that look alike come from different tables or passages of the source.

Key:
molm-13 = assay: Antiproliferative CCK-8 assay, molm-13; format: cell-based; settings: Homo sapiens; molm-13, CCK-8 assay, means ± SD; read-out: GC50 (the source's name)
Source text: (§1) Compounds12, 13 and 30 were selected for further cell activity assessments based on the enzymatic activity assessment results. molm-13 and MV4-11(acute myeloid lineage leukaemia cells), MGC-803 (gastric cancer cell), MDA-MB-231(breast cancer cell), A375 (melanoma cell), A549 (lung cancer cell), HCT-116, SW-480 and HT-29 (colorectal cancer cells) were selected to evaluate antitumor activity in vitro, GES-1 (gastric mucosal epithelial cell) was selected to evaluate toxicity in vitro.
(§2) CO2 atmosphere incubator for 24 h. Then, medium with compound at the concentrations of 100, 20, 4, 0.8, 0.016 μM was added into each well for another 48 h and incubated with CCK-8 (10 μL) for 2 h at 37 °C. The absorbance value at 450 nm was measured by the microplate reader (PerkinElmer Envision). […]

MDA-MB-231 = assay: Antiproliferative CCK-8 assay, MDA-MB-231; format: cell-based; settings: Homo sapiens; MDA-MB-231, CCK-8 assay, means ± SD; read-out: GC50 (the source's name)
Source text: as §1, §2

A375 = assay: Antiproliferative CCK-8 assay, A375; format: cell-based; settings: Homo sapiens, A-375; A375, CCK-8 assay, means ± SD; read-out: GC50 (the source's name)
Source text: as §1, §2

A549 = assay: Antiproliferative CCK-8 assay, A549; format: cell-based; settings: Homo sapiens; A549, CCK-8 assay, means ± SD; read-out: GC50 (the source's name)
Source text: as §1, §2

HCT-116 = assay: Antiproliferative CCK-8 assay, HCT-116; format: cell-based; settings: Homo sapiens; HCT-116, CCK-8 assay, means ± SD; read-out: GC50 (the source's name)
Source text: as §1, §2

GES-1 = assay: In vitro toxicity CCK-8 assay, GES-1; format: cell-based; settings: Homo sapiens, GES1, GES-1 gastric mucosal epithelial cell, read-out: GC50 (the source's name)
Source text: as §1, §2

CDK6 = CDK6 (Homo sapiens, UniProt Q00534); assay: CDKs selectivity, CDK6; format: biochemical
Source text: (§3) CDK7 and CDK9 with the same transcription function and CDK2 and CDK6 were selected to evaluate the selectivity of compound 12.

CDK7 = CDK7 (Homo sapiens, UniProt P50613); assay: CDKs selectivity, CDK7; format: biochemical
Source text: as §3

STAT1 Tyr701 = assay: Phosphorylation of STAT1 Tyr701, western blot; format: cell-based; settings: HCT-116 cells, 1, 2, 4 μM, 12 h
Protocol: It has been reported that CDK8 could specifically target the transactivation domain of STAT1 at Ser727 phosphorylation. HCT-116 cells were treated with compounds 12 with different concentrations of 1 μM, 2 μM, 4 μM separately to verify compound 12 could inhibit the phosphorylation of STAT1 Ser727. […] It’s reported that CDK8 was also involved in S726 phosphorylation of STAT5 in AML cells.
1.7 The effect of compound on phosphorylation of STAT1 S727
HCT-116 cells were seeded into 60 mm cultural dishes at a density of 1.5×10^6 cells per dishes. After incubated for 12 h, cells were treated with DMSO or 10ng/mL IFN-γ.1 hour later, cells were treated with or without different concentrations of compound for 12 h. Cells were lysed using RIPA containing PMSF and phosphatase inhibitor cocktail A. Then cell samples were treated by western blot. Levels of total STAT1, phosphorylated STAT1 S727, Y701 and GAPDH were analyzed.
1.8 The effect of compound on phosphorylation of STAT5 S726
HL-60 cells were seeded into 60 mm cultural dishes at a density of 2×10^6 cells per dishes. […]
Levels of total STAT5, phosphorylated STAT5 S726 and GAPDH were analyzed.
The results were expressed as the means ± SEMs (SPSS software), and the differences between groups were evaluated using Turkey’s method (GraphPad Software). […]

[1] = In vivo pharmacokinetic evaluation
Protocol: Pharmacokinetic data is an important parameter for small molecule drugs. Here, the pharmacokinetic data of compound 12 was performed. […] Based on the above data analysis, we believed it is possible that compound 12 could be used as an oral medication (Figure 7).

CYP 2C9 = CYP 2C9 (Homo sapiens, UniProt P11712); assay: CYP inhibition activity, 2C9; format: in vitro ADME
Source text: Table 7. CYP inhibition activity. | column: IC50 (μM) / 2C9

CYP 2C19 = CYP 2C19 (Homo sapiens, UniProt P33261); assay: CYP inhibition activity, 2C19; format: in vitro ADME
Source text: Table 7. CYP inhibition activity. | column: IC50 (μM) / 2C19

CYP 2D6 = CYP 2D6 (Homo sapiens, UniProt P10635); assay: CYP inhibition activity, 2D6; format: in vitro ADME
Source text: Table 7. CYP inhibition activity. | column: IC50 (μM) / 2D6

C57BL/6 mice = assay: Acute toxicity study; format: in vivo; settings: 1000 mg/kg by gastric tube
Protocol: The safety of compound 12 in vivo was evaluated through an acute toxicity study on C57BL/6 mice. The compound 12 was administered by gastric tube at a dose of 1000 mg/kg. The normal group was given the same amount of normal saline. […] Finally, the mice were anaesthetised and sacrificed, and the main organs such as heart, liver, spleen, lung and kidney were detected through pathological section.

[2] = blood, iv, 2 mg/kg, 2 mg/kg (iv)
[3] = blood, po, 10 mg/kg, 10 mg/kg (po)

Chain of CYP 2D6 (P10635 whole entry): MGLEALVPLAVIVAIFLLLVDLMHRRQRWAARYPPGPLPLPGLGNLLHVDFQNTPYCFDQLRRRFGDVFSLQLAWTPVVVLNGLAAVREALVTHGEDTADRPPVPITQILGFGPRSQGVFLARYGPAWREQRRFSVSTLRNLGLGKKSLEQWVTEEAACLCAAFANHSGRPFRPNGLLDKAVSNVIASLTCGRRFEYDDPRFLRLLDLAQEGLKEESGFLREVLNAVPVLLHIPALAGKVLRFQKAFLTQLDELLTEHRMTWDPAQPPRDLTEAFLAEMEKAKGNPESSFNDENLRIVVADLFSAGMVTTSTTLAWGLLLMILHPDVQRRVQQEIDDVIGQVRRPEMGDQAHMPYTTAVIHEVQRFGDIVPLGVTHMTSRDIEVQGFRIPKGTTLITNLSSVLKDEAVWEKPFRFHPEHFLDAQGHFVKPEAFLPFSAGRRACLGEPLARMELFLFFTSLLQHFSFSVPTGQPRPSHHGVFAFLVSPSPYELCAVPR
Chain of CYP 2C19 (P33261 whole entry): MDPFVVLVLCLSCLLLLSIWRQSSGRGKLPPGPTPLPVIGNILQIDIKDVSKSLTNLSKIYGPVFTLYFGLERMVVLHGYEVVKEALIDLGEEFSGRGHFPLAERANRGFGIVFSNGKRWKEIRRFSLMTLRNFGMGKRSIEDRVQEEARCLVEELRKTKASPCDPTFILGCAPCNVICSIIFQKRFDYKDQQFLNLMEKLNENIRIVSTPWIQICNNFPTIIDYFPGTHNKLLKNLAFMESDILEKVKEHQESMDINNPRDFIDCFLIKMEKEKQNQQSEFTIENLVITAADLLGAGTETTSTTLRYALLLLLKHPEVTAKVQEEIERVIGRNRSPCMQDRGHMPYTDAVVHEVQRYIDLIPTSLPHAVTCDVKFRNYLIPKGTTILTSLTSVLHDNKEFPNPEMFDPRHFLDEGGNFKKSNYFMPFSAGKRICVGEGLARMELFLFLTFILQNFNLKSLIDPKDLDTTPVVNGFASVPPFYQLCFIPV
Chain of CYP 2C9 (P11712 whole entry): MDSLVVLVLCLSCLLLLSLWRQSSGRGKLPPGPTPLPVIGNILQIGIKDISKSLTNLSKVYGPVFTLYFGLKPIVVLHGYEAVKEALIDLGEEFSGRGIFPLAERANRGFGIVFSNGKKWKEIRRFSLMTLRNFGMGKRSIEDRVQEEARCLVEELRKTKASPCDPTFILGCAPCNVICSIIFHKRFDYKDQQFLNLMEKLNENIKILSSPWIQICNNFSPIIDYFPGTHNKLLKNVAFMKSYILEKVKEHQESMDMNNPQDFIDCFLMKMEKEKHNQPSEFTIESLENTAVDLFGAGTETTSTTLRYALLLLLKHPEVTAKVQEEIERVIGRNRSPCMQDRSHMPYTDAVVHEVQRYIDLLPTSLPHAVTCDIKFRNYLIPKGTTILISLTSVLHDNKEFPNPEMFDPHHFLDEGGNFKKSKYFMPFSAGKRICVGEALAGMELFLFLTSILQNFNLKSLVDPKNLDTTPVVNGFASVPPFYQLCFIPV
Chain of CDK6 (Q00534 whole entry): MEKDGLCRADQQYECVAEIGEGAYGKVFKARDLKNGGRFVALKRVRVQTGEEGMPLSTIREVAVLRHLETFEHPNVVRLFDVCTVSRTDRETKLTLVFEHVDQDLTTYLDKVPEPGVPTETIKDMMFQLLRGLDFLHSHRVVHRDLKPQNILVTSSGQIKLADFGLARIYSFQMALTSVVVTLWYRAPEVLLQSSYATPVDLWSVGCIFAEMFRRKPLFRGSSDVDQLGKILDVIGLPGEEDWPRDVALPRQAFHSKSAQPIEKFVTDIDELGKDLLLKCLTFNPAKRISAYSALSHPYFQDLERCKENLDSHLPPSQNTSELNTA
Chain of CDK7 (P50613 whole entry): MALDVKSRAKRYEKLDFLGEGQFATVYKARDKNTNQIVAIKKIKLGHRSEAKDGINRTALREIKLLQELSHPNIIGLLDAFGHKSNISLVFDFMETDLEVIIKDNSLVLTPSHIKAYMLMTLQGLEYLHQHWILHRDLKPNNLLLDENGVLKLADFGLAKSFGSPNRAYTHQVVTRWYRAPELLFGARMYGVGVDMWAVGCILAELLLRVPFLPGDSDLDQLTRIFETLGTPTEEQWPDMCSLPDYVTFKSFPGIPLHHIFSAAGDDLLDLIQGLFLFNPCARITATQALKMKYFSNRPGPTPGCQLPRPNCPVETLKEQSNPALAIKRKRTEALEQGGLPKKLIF
Chain of CDK7 (P51946 whole entry partner): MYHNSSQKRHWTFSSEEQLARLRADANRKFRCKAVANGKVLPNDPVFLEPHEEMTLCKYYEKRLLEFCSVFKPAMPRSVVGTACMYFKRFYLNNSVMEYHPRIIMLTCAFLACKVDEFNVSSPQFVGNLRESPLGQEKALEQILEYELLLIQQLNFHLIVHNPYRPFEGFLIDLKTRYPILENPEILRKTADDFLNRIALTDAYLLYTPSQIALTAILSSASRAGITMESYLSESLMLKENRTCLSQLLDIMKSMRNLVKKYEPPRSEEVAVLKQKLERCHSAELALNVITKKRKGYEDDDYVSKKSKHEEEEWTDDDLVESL
Chain of CDK7 (P51948 whole entry partner): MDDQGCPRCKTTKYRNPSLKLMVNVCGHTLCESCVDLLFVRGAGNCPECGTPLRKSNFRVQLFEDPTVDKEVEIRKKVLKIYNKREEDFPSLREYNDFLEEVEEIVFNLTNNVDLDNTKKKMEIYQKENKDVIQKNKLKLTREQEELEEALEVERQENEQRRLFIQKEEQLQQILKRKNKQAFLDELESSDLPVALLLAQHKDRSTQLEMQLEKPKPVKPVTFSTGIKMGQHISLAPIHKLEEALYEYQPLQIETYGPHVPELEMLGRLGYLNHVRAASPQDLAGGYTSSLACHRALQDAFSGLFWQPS

Q: Which results are given for `NC(=O)c1cccc(-c2cnc3[nH]cc(-c4ccoc4)c3c2)c1` [Compound 12, 3-(3-(furan-3-yl)-1H-pyrrolo[2,3-b]pyridin-5-yl)benzamide]?
A: IC50 (molm-13): 0.02 ± 0.01 µM; IC50 (MDA-MB-231): > 50 µM; IC50 (A375): 1 ± 0.23 µM; IC50 (A549): 15.5 ± 2.78 µM; IC50 (HCT-116): 3.66 ± 1.94 µM; IC50 (GES-1): 25.7 ± 4.97 µM; IC50 (CDK6): 0.352 ± 0.0365 µM; IC50 (CDK7): 0.301 ± 0.0278 µM; Phosphorylation of STAT1 Tyr701 (STAT1 Tyr701): not inhibited; AUC 0-∞ ([1]; 2 mg/kg (iv)): 829.75 ng·h/mL; Cmax ([1]; 2 mg/kg (iv)): 647.79 ng/mL; AUC 0-∞ ([1]; 10 mg/kg (po)): 1611.67 ng·h/mL; CL ([1]; 10 mg/kg (po)): 104 mL/min/kg; Cmax ([1]; 10 mg/kg (po)): 821.82 ng/mL; AUC(0-inf) [1, 2]: 830 ng·h/mL; half-life [1, 2]: ~1.12 h; Cmax ([1]; blood, iv, 2 mg/kg, 2 mg/kg (iv), read-out: Cmax): 648 ng/mL; AUC(0-inf) [1, 3]: 1610 ng·h/mL; half-life [1, 3]: 0.95 h; Cmax ([1]; blood, po, 10 mg/kg, 10 mg/kg (po), read-out: Cmax): 822 ng/mL; MRT ([1]; blood, 2 mg/kg (iv)): 1.64 h; Tmax ([1]; blood, 2 mg/kg (iv)): 0.33 h; clearance ([1]; blood, 2 mg/kg (iv)): 40.8 mL/min/kg; MRT ([1]; blood, 10 mg/kg (po)): 2.24 h; Tmax ([1]; blood, 10 mg/kg (po)): 0.88 h; bioavailability ([1]; blood, 10 mg/kg (po) vs 2 mg/kg (iv)): 38.8%; IC50 (CYP 2C9): > 50 µM; IC50 (CYP 2C19): > 50 µM; IC50 (CYP 2D6): > 50 µM; Physiological phenomena such as anorexia, drowsiness, seizures and hyperactivity (C57BL/6 mice; 7 days): no obvious change; Pathological section of heart, liver, spleen, lung and kidney (HE staining) (C57BL/6 mice; after 7 days): no diseased tissue
